Test results published in patent publication US20250360100A1, “ANTI-CANCER DERIVATIVES OF OVATODIOLIDE AND USE THEREOF” (ARJIL BIOTECH HOLDING COMPANY LIMITED, priority 2024, published 2025).
In brackets after ≈: the same amount, converted by molar mass.

Key:
[1] = system: PC-3 (human prostate carcinoma); assay: MTT cytotoxicity assay in PC-3 cells; format: cell-based; details: 48 hours treatment, read-out: CC50 (50% cytotoxic concentration)
Method: (§1) In the invention, the cytotoxic effect was evaluated by the viability of cancer/tumor cells measured by the MTT assay, in several cancer cell lines, including the cell lines 293, A549, Colo205, SK-HEP1, PC-3, PANC-1, and AGS.
(§2) The compounds as tested were dissolved in DMSO (100 mg/mL), along with Doxorubicin (Dox), taken as a benchmark control, and the in vitro cytotoxicity in cancer cell lines were tested from 60 or 100 μg/mL with three-fold serial dilutions, and the 50% cytotoxic concentration (CC50) of test articles was determined by MTT assay.
(§3) Seven cancer cell lines were used in this example, including 293 (human embryonic kidney cells 293), A549 (human non-small cell lung cancer cells), Colo205 (human colon adenocarcinoma cells), SK-HEP1 (human hepatic cancer cells), PC-3 (human prostate carcinoma), PANC-1 (human pancreatic epithelioid carcinoma), and AGS (human gastric adenocarcinoma cells), cultured in the media and indicated as the table above. Briefly, cells seeded in 96-well plates were treated for 48 hours with the compounds as tested and the solvent (0.1% DMSO) as the vehicle control, respectively. Cell viability was determined by the MTT method, and the CC50 values were calculated using GraFit (Version 7, Erithacus Software Ltd., Horley, UK) and recorded.

[2] = system: A549 (human non-small cell lung cancer cells); assay: MTT cytotoxicity assay in A549 cells; format: cell-based; details: 48 hours treatment, read-out: CC50 (50% cytotoxic concentration)
Method: as §1, §2, §3

[3] = system: PANC-1 (human pancreatic epithelioid carcinoma); assay: MTT cytotoxicity assay in PANC-1 cells; format: cell-based; details: 48 hours treatment, read-out: CC50 (50% cytotoxic concentration)
Method: as §1, §2, §3

[4] = system: SK-HEP1 (human hepatic cancer cells); assay: MTT cytotoxicity assay in SK-HEP1 cells; format: cell-based; details: 48 hours treatment, read-out: CC50 (50% cytotoxic concentration)
Method: as §1, §2, §3

[5] = system: Colo205 (human colon adenocarcinoma cells); assay: MTT cytotoxicity assay in Colo205 cells; format: cell-based; details: COLO 205, 48 hours treatment, read-out: CC50 (50% cytotoxic concentration)
Method: as §1, §2, §3

[6] = system: 293 (human embryonic kidney cells 293); assay: MTT cytotoxicity assay in 293 cells; format: cell-based; details: HEK293, 48 hours treatment, read-out: CC50 (50% cytotoxic concentration)
Method: as §1, §2, §3

[7] = system: AGS (human gastric adenocarcinoma cells); assay: MTT cytotoxicity assay in AGS cells; format: cell-based; details: 48 hours treatment, read-out: CC50 (50% cytotoxic concentration)
Method: as §1, §2, §3

[8] = system: seven cancer cell lines (293, A549, Colo205, SK-HEP1, PC-3, PANC-1, AGS); assay: MTT cytotoxicity, overall statement for the seven cancer cell lines; format: cell-based, human; details: all seven cell lines, 48 hours
Method: as §1, §2, §3

SMILES	CC50 [1]	CC50 [2]	CC50 [3]	CC50 [4]	CC50 [5]	CC50 [6]	CC50 [7]	cytotoxicity (result in words) [8]
C=C1C(=O)O[C@H]2/C=C(\C)C[C@@H]3C=C(CC/C=C(\C)CC[C@H]12)C(=O)O3 [AR100-DS1, ovatodiolide]	17.8 ± 0.2 µg/mL (≈ 54.2 µM)	29.6 ± 0.4 µg/mL (≈ 90.1 µM)	40.2 ± 3.9 µg/mL (≈ 122 µM)	49.9 ± 5.2 µg/mL (≈ 152 µM)	41.7 ± 4.5 µg/mL (≈ 127 µM)	25.7 ± 2.5 µg/mL (≈ 78.3 µM)	13 ± 5.1 µg/mL (≈ 39.6 µM)	–
C=C1C(=O)O[C@H]2/C=C(\C)C[C@@H]3C=C(CCC4OC4(C)CC[C@H]12)C(=O)O3 (stereo partly drawn) [Ova-Oxy]	12.3 ± 5.4 µg/mL (≈ 35.7 µM)	23 ± 4.7 µg/mL (≈ 66.8 µM)	32 ± 0.8 µg/mL (≈ 92.9 µM)	45.2 ± 3.2 µg/mL (≈ 131 µM)	17 ± 0.2 µg/mL (≈ 49.4 µM)	22.5 ± 0.5 µg/mL (≈ 65.3 µM)	9.1 ± 0.9 µg/mL (≈ 26.4 µM)	exhibit cytotoxic effects in all of the seven cancer cell lines
COc1cccc2c1C(=O)c1c(O)c3c(c(O)c1C2=O)C[C@@](O)(C(=O)CO)C[C@@H]3O[C@H]1C[C@H](N)[C@H](O)[C@H](C)O1 [Dox, Doxorubicin]	10.3 ± 1.5 µg/mL (≈ 19 µM)	> 10 µg/mL	10.7 ± 1.5 µg/mL (≈ 19.7 µM)	9.8 ± 0.2 µg/mL (≈ 18 µM)	8.7 ± 0.6 µg/mL (≈ 16 µM)	> 10 µg/mL	0.3 ± 0.1 µg/mL (≈ 0.552 µM)	–
C/C1=C\CCC2=C[C@@H](C/C(C)=C/[C@@H]3OC(=O)C(CSCCO)[C@H]3CC1)OC2=O (stereo partly drawn) [Ova-ST2]	> 100 µg/mL	> 100 µg/mL	> 100 µg/mL	> 100 µg/mL	> 100 µg/mL	> 100 µg/mL	> 100 µg/mL	did not exhibit the cytotoxicity
